Data as given in US20200120909A1, “COMPOSITIONS AND METHODS FOR THE STUDY AND TREATMENT OF ACUTE KIDNEY INJURY” (THE JOHNS HOPKINS UNIVERSITY, priority 2014, published 2020).

Legend:
[1] = system: T cells; settings: cited from earlier work; for TNF-a and IFN-g production: after CD3/CD28 activation; for T helper phenotype skewing: pharmacologic activation of Nrf2
[2] = system: Nrf2; assay: Nrf2 target gene expression in treated human peripheral blood mononuclear cells; type: cell-based
Experimental: (§1) FIG. 11. […] RNA isolated from these cells was analyzed by quantitative real-time PCR for expression of Nrf2 target genes, NQO1, HO-1 and GCLM. […] Furthermore, we treated peripheral blood mononuclear cells (PBMCs) from healthy individuals and treated them with CDDO-Me (Bardoxolone), an Nrf2 activator related to triterpenopid derivative CDDO-Im.

[3] = system: acute kidney injury; settings: pharmacological activation of Nrf2 regulated antioxidant response; cited from earlier work
[4] = system: Nrf2; assay: Ex-vivo Nrf2 activation of purified mouse T cells, real-time PCR of Nrf2 target genes; type: cell-based
Experimental: as §1
Antioxidant Gene Expression Analyses. Total RNA ([…]) from purified T cells was isolated with the RNeasy mini kit (Qiagen, Valencia, Calif.) and reverse transcribed using a high capacity cDNA synthesis kit (Life Technologies). A gene-specific TaqMan primer and probe sets were used to assess transcriptional status of Nrf2, Nqo1, Ho-1, Gclm, and Gclc in Quantstudio 12K flex real-time PCR (Life Technologies). The absolute expression values for each gene were normalized to that of b-actin and the relative gene expression values calculated.

[5] = purified T cells from wild type mice, 20 nM and 50 nM, 24 hours

CC(C)(C)c1cc(O)ccc1O [tertbutylhydroquinone, tert-butylhydroquinone]
TNF-a and IFN-g production [1]: suppress | T helper phenotype skewing [1]: skew T cells toward a Th2 type phenotype

COC(=O)[C@]12CCC(C)(C)C[C@H]1[C@H]1C(=O)C=C3[C@@]4(C)C=C(C#N)C(=O)C(C)(C)[C@@H]4CC[C@@]3(C)[C@]1(C)CC2 [CDDO-Me, bardoxolone methyl]
gene expression of GCLM ([2]; PBMCs from healthy individuals, p=0.01): significant increase | gene expression of NQO1 ([2]; PBMCs from healthy individuals, p=0.02): significant increase | gene expression of HO-1 ([2]; PBMCs from healthy individuals, p=0.05): significant increase

CC1(C)CC[C@]2(C(=O)n3ccnc3)CC[C@]3(C)[C@H](C(=O)C=C4[C@@]5(C)C=C(C#N)C(=O)C(C)(C)[C@@H]5CC[C@]43C)[C@@H]2C1 [CDDO-Im]
protection from acute kidney injury [3]: can protect from acute kidney injury | HO-1 mRNA expression [4, 5]: significant increase | NQO1 mRNA expression [4, 5]: significant increase | activating Nrf2 regulated antioxidant gene expression ([4]; purified mouse T cells, 20 and 50 μM): significantly effective | activating Nrf2 regulated antioxidant gene expression ([2]; human PBMCs, 20 and 50 μM): significantly effective

COc1ccc(O)c(C(C)(C)C)c1 [butylated hydroxyanisole]
TNF-a and IFN-g production [1]: suppress | T helper phenotype skewing [1]: skew T cells toward a Th2 type phenotype
